Results as given in patent US20170216360A1, “METHODS AND COMPOSITIONS FOR IMPROVING HOMING OF CELLS INCLUDING MESENCHYMAL STEM CELLS” (SANOFI, priority 2014, published 2017).
“Also recorded” adds a separate entry of the source. Structures can show the parent of a compound that is named as a salt.

Assays:
[1] = test system: LPS-induced inflamed mouse ear; test: In vivo MSC homing to LPS-induced inflamed ear after systemic infusion, intravital microscopy; design: key to In vivo functional assay (homing): NA = negative activity result; A = positive activity result; details: for Increase of MSC homing to inflamed ear (%): relative to untreated cells; for MSC homing to the inflamed ear in vivo, result in words: vs vehicle-treated control
Description: C57BL/6 mice (Charles River Laboratories, Wilmington, Mass.) were anesthetized with ketamine/xylazine and their ears shaved 24 h prior to cell infusion. To induce an inflammatory response, 30 μg of E. coli lipopolysaccharide (LPS, Sigma, St. Louis, Mo.) in 50 μL saline was injected into the pinna of the left ear, with 50 μL 0.9% saline injected into the right ear as a control. For in vivo dye sensitivity validation, 1×10e6 cells of each stain were suspended in 150 μL PBS (pH 7.4) and injected by retro-orbital vein infusion.
To evaluate the minimum number of cells needed for a reproducible response, each mouse (n=4) received a range of cell doses (10,000, 50,000, 100,000, or 500,000) each of cells stained with Dil or DiD with a dye switch (i.e., dyes used for experimental and control cells were alternated to prevent bias based on the dyes that were used). To evaluate the impact of small molecule hit pre-treatment on MSC homing to the inflamed ear, MSCs were incubated with 3 μM of the small molecule hit or 0.1% DMSO as a control for 24 h before staining and in vivo administration. To highlight the vasculature, 50 μL of 10 mg/mL FITC-dextran ([…]; Sigma, St. Louis, Mo.) was injected retro-orbitally prior to imaging.
In vitro staining and in vivo homing of stained MSCs to the skin was imaged noninvasively in real time using a custom-built video-rate laser-scanning confocal microscope designed specifically for live animal imaging. For in vivo imaging, the mouse ear was positioned under a coverslip with methylcellulose gel and images acquired at 30 frames per second at a depth up to 200 μm using a 60×1.0NA water immersion objective lens (Olympus, Center Valley, Pa.). DiO labeled MSCs were excited with a 491 nm continuous wave (CW) laser (Cobalt, Stockholm, Sweden), and detected through a 520±20 nm bandpass filter (Semrock, Inc., Rochester, N.Y.). Dil labeled MSCs were excited with a 561 nm CW laser (Coherent, Inc., Santa Clara, Calif.) and detected through a 593 nm±40 nm filter (Omega Optical, Brattleboro, Vt.). DiD labeled MSCs were excited with a 635 nm CW laser (Coherent, Inc., Santa Clara, Calif.) and detected through a 695 nm±27.5 nm band pass filter (Omega Optical, Brattleboro, Vt.). DiR labeled MSCs were excited using a femtosecond Ti:Sapphire Maitai source for single photon excitation at 750 nm (Spectra Physics, Santa Clara, Calif.) and collected through a 785 nm±31 nm band pass filter (Omega Optical, Brattleboro, Vt.).
For quantification, the average number of cells in 20 representative imaging locations across the inflamed region was counted in each mouse. Cells were defined as having a diameter from 10-30 μm to eliminate debris and clumps from analysis, and a primary channel intensity greater than 2 to eliminate autofluorescent events. The average relative detection sensitivity (ratio of Dil/DiD counts) determined in the overall dye efficiency experiments were used to scale the counts for DiD stained cells. […] For multiple comparisons, Tukey's HSD test was used. Error bars in graphs represent standard error, and statistical significance is denoted by * p<0.05.

[2] = test system: human mesenchymal stromal cells (MSCs); test: Cell viability assay, IncuCyte FLR with Yoyo-1 dye (membrane integrity); type: cell-based; details: 24 hours pretreatment
Description: Cell viability experiments were performed using the IncuCyte FLR (Essen Bioscience). Cells were stained with a cell impermeant cyanine dimer nucleic acid stain (Yoyo-1, Life Technologies). This fluorescent dye was used to measure cell membrane integrity. Pre-confluent human mesenchymal stromal cells (MSCs) were incubated for 24 hours with both the indicated small molecules […]. To kinetically measure MSC membrane integrity, images were acquired every two hours using an IncuCyte FLR live-cell image imaging system.

[3] = MSCs pretreated 3 μM 24 h, 24 h after infusion

| SMILES | MSC homing to skin in the inflamed ear, average cells [1, 3] | Increase of MSC homing to inflamed ear (%) [1] | MSC homing to the inflamed ear in vivo, result in words [1] | MSC viability [2] | Increase of MSC homing to inflamed ear compared to vehicle-treated MSCs [1, 3] | Increased homing versus vehicle-treated MSCs, without CD11a blocking ([1]; inflamed ear) | Increased homing versus vehicle-treated MSCs, CD11a blocked prior to infusion ([1]; inflamed ear, anti-human CD11a clone TS1/22) | Increase of MSC homing to inflamed ear (%) ([1]; hydrochloride) | In vivo functional assay (homing) ([1]; systemic administration of pretreated huMSCs) |
| --- | --- | --- | --- | --- | --- | --- | --- | --- | --- |
| CCc1c2c(nc3ccc(OC(=O)N4CCC(N5CCCCC5)CC4)cc13)-c1cc3c(c(=O)n1C2)COC(=O)[C@]3(O)CC [Compound 1927, reference compound] | 47.2±20.4 cells/cm^2 | 0% | no impact; also recorded: did not affect MSC homing | did not modify MSC viability |  |  |  |  |  |
| Cn1cc(C2=C(c3c4n(c5ccccc35)CCC(CN)C4)C(=O)NC2=O)c2ccccc21 (stereo not drawn) [Compound 1929, 3-(8-aminomethyl-6,7,8,9-tetrahydro-pyrido[1,2-a]indol-10-yl)-4-(1-methyl-1H-indol-3-yl)-pyrrole-2,5-dione hydrochloride] | 78.5±15.9 cells/cm^2 |  | significantly promoted MSC homing | did not modify MSC viability | 69.3±11.3% | 70% | less than 10% | 73% | A |
